Source: patent publication US20110311484A1, “STRAINS OF […] LEUKEMIA-RELATED VIRUS AND METHODS FOR DETECTION THEREOF” (Whittemore Peterson Institute for Neuro-Immune Disease, priority 2010, published 2011)

System: XMRV
Experiment: XMRV Env expression in PHA/IL-2 activated PBMC cultures, staining with SFFV env moAb
Type: cell-based
Conditions: PBMCs of XMRV-infected individuals, PHA/IL-2 activated for three days; inhibitor (50 nM AZT, FIG. 3) added prior to activation
Method: XMRV RNA could not always be detected in the PBMCs of subjects from which infectious virus had been isolated from plasma. […] We have observed that culturing these PBMCs under conditions that induce activation of T cells increases the frequency of XMRV detected by RT-PCR in the cells maintained in culture. […] To biologically increase the level of XMRV and increase the probability that XMRV sequences could be detected by PCR, PBMCs were cultured under conditions that activated T cells for 7-10 days, the RNA isolated, and nested RT-PCR analysis performed as described above.

Structure (SMILES): Cc1cn([C@H]2C[C@H](N=[N+]=[N-])[C@@H](CO)O2)c(=O)[nH]c1=O [reverse transcriptase inhibitor, zidovudine]
- XMRV expression, as measured by cell surface expression of Env: prevents the increase XMRV expression
